Assay results published in ChEMBL document CHEMBL2424578, “Synergistic effects of berberines with antibiotics on clinical multi-drug resistant isolates of methicillin-resistant Staphylococcus aureus (MRSA)” (2013).
Converted amounts (≈) assume the structure as drawn.

Experiments:
Assay type in all cases: functional
Staphylococcus aureus [1] = experiment: Antibacterial activity against SCCmec type 3 genotype-positive and methicillin-resistant Staphylococcus aureus clinical isolates after 24 hrs by chequerboard method in presence of cefazolin
Staphylococcus aureus [2] = experiment: Antibacterial activity against SCCmec type 3 genotype-positive and methicillin-resistant Staphylococcus aureus clinical isolates after 24 hrs by chequerboard method in presence of levofloxacin
Staphylococcus aureus [3] = experiment: Antibacterial activity against SCCmec type 3 genotype-positive and methicillin-resistant Staphylococcus aureus clinical isolates after 24 hrs by broth microdilution method
Staphylococcus aureus [4] = experiment: Antibacterial activity against SCCmec type 3 genotype-positive and methicillin-resistant Staphylococcus aureus clinical isolates after 24 hrs by chequerboard method in presence of ampicillin
Staphylococcus aureus [5] = experiment: Antibacterial activity against SCCmec type 3 genotype-positive and methicillin-resistant Staphylococcus aureus clinical isolates after 24 hrs by chequerboard method in presence of azithromycin

SMILES	FICI50 (Staphylococcus aureus [1])	FICI90 (Staphylococcus aureus [1])	fractional inhibitory concentration index (FICI) (Staphylococcus aureus [1])	FICI50 (Staphylococcus aureus [2])	FICI90 (Staphylococcus aureus [2])	fractional inhibitory concentration index (FICI) (Staphylococcus aureus [2])	MBC (Staphylococcus aureus [3]) [µg/mL]	MIC (Staphylococcus aureus [3]) [µg/mL]	FICI50 (Staphylococcus aureus [4])	FICI90 (Staphylococcus aureus [4])	fractional inhibitory concentration index (FICI) (Staphylococcus aureus [4])	FICI50 (Staphylococcus aureus [5])	FICI90 (Staphylococcus aureus [5])	fractional inhibitory concentration index (FICI) (Staphylococcus aureus [5])
COS(=O)(=O)[O-].COc1ccc2c(c1OC)C[N+]1(C)CCc3cc4c(cc3C1=C2)OCO4 (stereo not drawn)	2	2	1.5	0.375	0.5	0.25	256	64	2	2	1.5	0.375	0.5	0.188
CC1(C)S[C@@H]2[C@H](NC(=O)[C@H](N)c3ccccc3)C(=O)N2[C@H]1C(=O)O [AMPICILLIN]	–	–	–	–	–	–	64 (≈ 183 µM)	–	–	–	–	–	–	–
CC[C@H]1OC(=O)[C@H](C)[C@@H](O[C@H]2C[C@@](C)(OC)[C@@H](O)[C@H](C)O2)[C@H](C)[C@@H](O[C@@H]2O[C@H](C)C[C@H](N(C)C)[C@H]2O)[C@](C)(O)C[C@@H](C)CN(C)[C@H](C)[C@@H](O)[C@]1(C)O [AZITHROMYCIN]	–	–	–	–	–	–	–	2000 (≈ 2670 µM)	–	–	–	–	–	–
COc1ccc2cc3[n+](cc2c1OC)CCc1cc2c(cc1-3)OCO2.[Cl-] [BERBERINE CHLORIDE]	2	2	1.5	0.5	0.75	0.375	64	32	2	2	1.5	0.313	0.5	0.25
C[C@H]1COc2c(N3CCN(C)CC3)c(F)cc3c(=O)c(C(=O)O)cn1c23.C[C@H]1COc2c(N3CCN(C)CC3)c(F)cc3c(=O)c(C(=O)O)cn1c23.O [LEVOFLOXACIN]	–	–	–	–	–	–	8	2	–	–	–	–	–	–
CN[C@H](CC(C)C)C(=O)N[C@H]1C(=O)N[C@@H](CC(N)=O)C(=O)N[C@H]2C(=O)N[C@H]3C(=O)N[C@H](C(=O)N[C@H](C(=O)O)c4cc(O)cc(O)c4-c4cc3ccc4O)[C@H](O)c3ccc(c(Cl)c3)Oc3cc2cc(c3O[C@@H]2O[C@H](CO)[C@@H](O)[C@H](O)[C@H]2O[C@H]2C[C@](C)(N)[C@H](O)[C@H](C)O2)Oc2ccc(cc2Cl)[C@H]1O [VANCOMYCIN]	–	–	–	–	–	–	2 (≈ 1.38 µM)	–	–	–	–	–	–	–
